Reference: US8847018B2, “Plants tolerant to HPPD inhibitor herbicides” (Bayer CropScience AG, priority 2009, dated 2014)
“Also recorded” adds a separate entry of the source.

What was measured:
[1] = tested on: Rhodococcus HPPD SEQ ID No. 5 (FMP22e); test: biochemical; type: biochemical, Rhodococcus sp. (strain RHA1), isolate ro03041; settings: SEQ ID No. 5
[2] = tested on: tobacco calli containing HPPD SEQ ID No. 11 (Arabidopsis thaliana); test: Rooting of calli on media with tembotrione; type: cell-based, Nicotiana tabacum; settings: calli containing SEQ ID No. 11; 6 to 12 weeks
Description: (§1) The leaf disks were co-cultivated for 2 days with Agrobacterium tumefaciens cells containing either the binary vector FMP22ebv, FMP23ebv or AtHPPDbv. Then the leaf disks were transferred to a media allowing the regeneration of shoots for 6 weeks on MS (Musharige and Skoog, (1962), Physiol Plant 15(3): 473-497) media supplemented with BAP ([…]; Benzylaminopurine), carbenicillin ([…]), cefotaxine (250 mg/mL), kanamycin (75 mg/mL) and tembotrione (10^−6 M)
(§2) Regenerated calli were transferred on media to induce the development of roots for 6 to 12 weeks: MS (½), supplemented with carbenicillin (250 mg/mL), cefotaxine (250 mg/mL), kanamycin (75 mg/mL), and tembotrione (10^−6 M).
(§3) Regenerated shoot calli from a cell transformed with a nucleic acid sequence encoding an HPPD comprising SEQ ID No. 11 (Arabidopsis thaliana) SEQ ID No. 21 or SEQ ID No. 7 (Rhodococcus) were transferred to a media inducing root growth which media was further supplemented with the HPPD inhibitor tembotrione for 6 to 12 weeks.

[3] = tested on: tobacco calli containing HPPD SEQ ID No. 7 (Rhodococcus); test: Rooting of calli on media with tembotrione; type: cell-based, Nicotiana tabacum; settings: calli containing SEQ ID No. 7; 6 to 12 weeks
Description: as §1, §2, §3

[4] = tested on: tobacco calli containing HPPD SEQ ID No. 21 (Rhodococcus); test: Rooting of calli on media with tembotrione; type: cell-based, Nicotiana tabacum; settings: calli containing SEQ ID No. 21; 6 to 12 weeks
Description: as §1, §2, §3

[5] = target: Rhodococcus HPPD SEQ ID No. 19 (FMP23e); test: HPLC assay of HPPD in vitro kinetic properties; type: biochemical, Rhodococcus sp. (strain RHA1), isolate ro02040; settings: 2 mM HPP; SEQ ID No. 19
[6] = target: (Rhodococcus jostii, UniProt Q0SF39); test: HPLC assay of HPPD in vitro kinetic properties; type: biochemical, Rhodococcus sp. (strain RHA1), isolate ro02040
[7] = tested on: soybean plants expressing the FMP23 HPPD protein; test: Greenhouse treatment of soybean events with tembotrione; type: in vivo; settings: six FMP23 events; 100 g AI/ha, ten days after application
Description: (§4) Plants containing the transgene were then sprayed with HPPD inhibitor herbicides, as for example with tembotrione at a rate of 100 g Al/ha. Ten days after the application the symptoms due to the application of the herbicide were evaluated and compared to the symptoms observed on a wild type plants under the same conditions.
(§5) Concerning FMP22, one event expressing the FMP22 HPPD protein have been generated from the green shoots of above and were transferred to the greenhouse. Four weeks after acclimation, i.e. plants at a developmental stage of 3-4 internodes were treated with 100 g Al/ha tembotrione prepared from a WP 20 formulation supplemented with ammonium sulfate and methyl ester raps oil. Ten days after application, the symptoms caused by the application of the HPPD inhibitor herbicide were evaluated and compared to the symptoms observed on treated non-transgenic wild-type soybean plants. […] Concerning FMP23, six events expressing the FMP23 HPPD protein have been generated from the green shoots of above and were transferred to the greenhouse. […] Ten days after application, the symptoms caused by the application of the HPPD inhibitor herbicide were evaluated and compared to the symptoms observed on treated non-transgenic wild-type soybean plants.

[8] = tested on: soybean plants expressing the FMP22 HPPD protein; test: as above; type: in vivo; settings: one FMP22 event; 100 g AI/ha, ten days after application
Description: as §4, §5

In the case of `CS(=O)(=O)c1ccc(C(=O)C2C(=O)CCCC2=O)c(Cl)c1COCC(F)(F)F` [Tembotrione, 2-[2-chloro-4-(methylsulfonyl)-3-[(2,2,2,-tri-fluoroethoxy)methyl]benzoyl]-1,3-cyclo-hexanedione], the pI50 ([1]; 2 mM HPP, 3 minutes incubation) is reported as 5.3, the “percentage of inhibition compared to activity in absence of the inhibitor” value ([1]; 5.0 × 10^−6 M inhibitor) is reported as 36% and the “root growth on media with tembotrione” value [2] is reported as “On none of the events containing the HPPD defined by SEQ ID No. 11 (Arabidopsis thaliana) or none transformed calli, root growth was observed”. For the same compound, the “% Elongation & rooting on 10^−6 M tembotrione” value [3] was 65%, the “root growth on media with tembotrione” value [3] was “clearly developed numerous and healthy roots” and the “% Elongation & rooting on 10^−6 M tembotrione” value [4] was 63%. The “root growth on media with tembotrione” value [4] was “clearly developed numerous and healthy roots”, the Ki [5] was 2000 nM and the kon ([6]; read-out: k1 (Kon, association rate constant)) was 3200 M⁻¹ s⁻¹. The koff ([6]; read-out: k−1 (Koff, enzyme-inhibitor complex dissociation)) was 0.0063 s⁻¹, the “symptoms caused by the herbicide” value [7] was “One of the six events didn't show any bleaching phenotype; also recorded: One event showed transitory light bleaching symptoms but recovered 14 days after tembotrione application; also recorded: remaining four events exhibited the bleaching like non-transgenic wild-type soybean plant” and the “symptoms caused by the herbicide” value [8] was “transitory light bleaching symptoms but recovered 14 days after tembotrione application”.
